The values below come from ChEMBL document CHEMBL1201862, “PubChem BioAssay data set” (2004).

Among the test systems are RXF 393; NCI-H460; ACHN; M14; MDA-N; MCF7; SNB-19; HCC 2998; NCI-H522; TK-10; T47D; U-251; OVCAR-3; SR; SK-OV-3; MDA-MB-231; SF-539; A549; DU-145; MOLT-4.
Assay in all cases: growth of human tumour cells (NCI), 48 h

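Each compound was tested at five concentrations against cells in 96-well plates for 48 hours. Here, GI50 denotes the concentration required for 50% inhibition of growth.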 Activity calls are given as the source filed them. No stated cut-off is given here; in the data, active = GI50 up to about 1.1 µM and inactive = higher.

For `Cc1nc([N+](=O)[O-])cn1-c1nc2ccccn2c1[N+](=O)[O-]`, the GI50 in the experiment on RXF 393 was 17.7 µM (inactive); with NCI-H460 it was 45.1 µM (inactive); in the experiment with ACHN, > 100 µM (inactive); in the experiment on M14, > 100 µM (inactive); in the experiment on MDA-N, 57.4 µM (inactive); in the experiment on MCF7, 95.3 µM (inactive). In addition, the GI50 in the experiment with SNB-19 is 80.2 µM (inactive); in the experiment with HCC 2998, 41.2 µM (inactive); with NCI-H522, 55 µM (inactive); in the experiment with TK-10, 67.5 µM (inactive); in the experiment with T47D, 43.7 µM (inactive); with U-251, 53.2 µM (inactive). Further, the GI50 with OVCAR-3 is > 100 µM (inactive); in the experiment with SR, 42 µM (inactive); in the experiment on SK-OV-3, 47.2 µM (inactive); with MDA-MB-231, 56.4 µM (inactive); in the experiment on SF-539, 68.2 µM (inactive); in the experiment with A549, > 100 µM (inactive). Moreover, the GI50 in the experiment on DU-145 is 26.5 µM (inactive).

Consider `Cc1cc(O)c2cc3c(O)c(O)ccc3cc2c1`, for which the GI50 in the experiment with MOLT-4 was 1.03 µM (active); in the experiment with RXF 393, 0.713 µM (active); with NCI-H460 it was 0.524 µM (active); in the experiment with ACHN it was 1.77 µM (inactive); with M14, 2.86 µM (inactive); with MDA-N, 2.18 µM (inactive). Moreover, the GI50 in the experiment with MCF7 is 2.27 µM (inactive); in the experiment with SNB-19, 0.615 µM (active); in the experiment with HCC 2998, 0.817 µM (active); in the experiment with NCI-H522, 0.789 µM (active); with TK-10, 3.78 µM (inactive); in the experiment on T47D it was 1.75 µM (inactive). The GI50 with U-251 is 0.42 µM (active); in the experiment with OVCAR-3, 0.46 µM (active); in the experiment with SR, 0.618 µM (active); in the experiment with SK-OV-3, 0.774 µM (active); in the experiment on MDA-MB-231, 1.25 µM (inactive); in the experiment on SF-539, 0.822 µM (active). Further, the GI50 was 1.14 µM (inactive) in the experiment with A549 and 3.91 µM (inactive) with DU-145.

Turning to `c1ccc(/C(=N/Nc2nc3ccccc3s2)C2CCCCC2)nc1`, the GI50 with MOLT-4 is 0.203 µM (active); with RXF 393, 11.7 µM (inactive); in the experiment with NCI-H460 it was 7.83 µM (inactive); with ACHN it was 6.58 µM (inactive); with M14 it was 10.3 µM (inactive); with MDA-N it was 14.4 µM (inactive). The GI50 was 1.23 µM (inactive) with MCF7; 13.2 µM (inactive) in the experiment with SNB-19; < 0.01 µM (active) with HCC 2998; 2.76 µM (inactive) with NCI-H522; 2.47 µM (inactive) in the experiment on TK-10; 0.299 µM (active) in the experiment on T47D. The GI50 in the experiment on U-251 was 11.3 µM (inactive); in the experiment with OVCAR-3, 2.92 µM (inactive); in the experiment with SR, 3.88 µM (inactive); with SK-OV-3 it was 4.67 µM (inactive); with MDA-MB-231 it was 11.3 µM (inactive); with SF-539, 13.8 µM (inactive). Also, the GI50 was 16.9 µM (inactive) with A549 and 12.6 µM (inactive) with DU-145.

Consider `c1cc2nnc1SCCSCCCSCCS2`, for which the GI50 in the experiment with MOLT-4, in the experiment on RXF 393, in the experiment on NCI-H460, in the experiment with ACHN, in the experiment with M14 and in the experiment on MDA-N was > 100 µM (inactive) throughout. For the same compound, the GI50 with MCF7 is > 100 µM (inactive); in the experiment with SNB-19 it was 56.8 µM (inactive); in the experiment with HCC 2998 it was > 100 µM (inactive); in the experiment with NCI-H522, > 100 µM (inactive); in the experiment with TK-10 it was > 100 µM (inactive); with T47D, > 100 µM (inactive). For the same compound, the GI50 in the experiment on U-251 was > 100 µM (inactive); in the experiment with OVCAR-3 it was > 100 µM (inactive); in the experiment on SR it was > 100 µM (inactive); in the experiment with SK-OV-3, > 100 µM (inactive); in the experiment with MDA-MB-231 it was 29.6 µM (inactive); in the experiment on SF-539, 20 µM (inactive). Moreover, the GI50 in the experiment on A549 is > 100 µM (inactive); with DU-145, 2.86 µM (inactive).

As to `C[N+](C)(C)CCN(Cc1cccs1)c1ccccn1`, the GI50 in the experiment on RXF 393, with NCI-H460, in the experiment with ACHN, in the experiment on M14, in the experiment on MDA-N and in the experiment with MCF7 was > 100 µM (inactive) throughout. In addition, the GI50 in the experiment on SNB-19 was > 100 µM (inactive); with HCC 2998, > 100 µM (inactive); with NCI-H522, 40.8 µM (inactive); in the experiment with TK-10, > 100 µM (inactive); with T47D it was > 100 µM (inactive); in the experiment on U-251 it was > 100 µM (inactive). In addition, the GI50 in the experiment on OVCAR-3 is 35.7 µM (inactive); with SR, > 100 µM (inactive); in the experiment on SK-OV-3 it was > 100 µM (inactive); with MDA-MB-231, > 100 µM (inactive); in the experiment on SF-539, > 100 µM (inactive); in the experiment on A549, 68.9 µM (inactive). Also, the GI50 in the experiment with DU-145 is > 100 µM (inactive).

In the case of `CC(C)(C)N1CC1CNC(=O)C(=O)NCC1CN1C(C)(C)C` (centres undefined), the GI50 in the experiment with MOLT-4 was 1.57 µM (inactive); with RXF 393 it was 1.67 µM (inactive); in the experiment with NCI-H460 it was 1.53 µM (inactive); in the experiment on ACHN, 1.29 µM (inactive); with M14, 3.61 µM (inactive); in the experiment with MDA-N, 25.8 µM (inactive). The GI50 with MCF7 is 9.31 µM (inactive); in the experiment with SNB-19 it was 13.7 µM (inactive); in the experiment on HCC 2998, 3.16 µM (inactive); with NCI-H522, 1.31 µM (inactive); in the experiment on TK-10, 51.1 µM (inactive); in the experiment with T47D, 22.2 µM (inactive). The GI50 was 3.05 µM (inactive) in the experiment with U-251; 4.62 µM (inactive) with OVCAR-3; 0.601 µM (active) in the experiment with SR; 3.69 µM (inactive) with SK-OV-3; 63.4 µM (inactive) in the experiment with MDA-MB-231; 2.94 µM (inactive) in the experiment on SF-539. Also, the GI50 with A549 was 3.93 µM (inactive); in the experiment on DU-145, 7.62 µM (inactive).

`C/C=C/C=C/c1nc(C#N)c(N)o1`: the GI50 was 63.8 µM (inactive) in the experiment with MOLT-4; > 100 µM (inactive) with RXF 393; > 100 µM (inactive) in the experiment on ACHN; > 100 µM (inactive) in the experiment with M14; > 100 µM (inactive) in the experiment on MDA-N; > 100 µM (inactive) in the experiment with MCF7. Moreover, the GI50 in the experiment on SNB-19 is > 100 µM (inactive); in the experiment on HCC 2998, > 100 µM (inactive); in the experiment on NCI-H522, 41.6 µM (inactive); in the experiment with TK-10, > 100 µM (inactive); with T47D, > 100 µM (inactive); in the experiment on U-251, > 100 µM (inactive). Moreover, the GI50 with OVCAR-3 is > 100 µM (inactive); with SR, > 100 µM (inactive); in the experiment with SK-OV-3, > 100 µM (inactive); in the experiment with MDA-MB-231 it was > 100 µM (inactive); in the experiment with SF-539 it was > 100 µM (inactive); in the experiment with A549, 99.3 µM (inactive). Further, in the experiment on DU-145, the GI50 was > 100 µM (inactive).

Consider `CCCC[C@@H]1CCN2C[C@@H](O)[C@@H](O)[C@@H]2[C@H]1O`, for which the GI50 with MOLT-4, in the experiment on RXF 393, in the experiment with NCI-H460, in the experiment with ACHN, in the experiment on M14 and in the experiment on MDA-N was > 100 µM (inactive) throughout. For the same compound, the GI50 in the experiment on MCF7, in the experiment on SNB-19, in the experiment on HCC 2998, with NCI-H522, with T47D and in the experiment on U-251 was > 100 µM (inactive) each time. The GI50 with OVCAR-3, in the experiment with SR, with SK-OV-3, in the experiment on MDA-MB-231, in the experiment with SF-539 and in the experiment with A549 was > 100 µM (inactive) throughout. Moreover, the GI50 in the experiment on DU-145 was > 100 µM (inactive).

`[O-][S+](C(c1ccccc1)=P(c1ccccc1)(c1ccccc1)c1ccccc1)c1ccc(Cl)cc1` (centres undefined): the GI50 was 29.1 µM (inactive) with MOLT-4; 21.3 µM (inactive) in the experiment on RXF 393; 24.2 µM (inactive) with NCI-H460; 26.4 µM (inactive) in the experiment with ACHN; 25.5 µM (inactive) in the experiment with M14; 13.3 µM (inactive) in the experiment on MDA-N. Also, the GI50 in the experiment with MCF7 is 17.9 µM (inactive); in the experiment on HCC 2998 it was 28.4 µM (inactive); in the experiment on NCI-H522 it was 11.8 µM (inactive); in the experiment with TK-10 it was 31.9 µM (inactive); in the experiment on T47D, 7.83 µM (inactive); with U-251 it was 21.2 µM (inactive). The GI50 was 22.3 µM (inactive) with OVCAR-3; 19.5 µM (inactive) in the experiment on SR; 24.4 µM (inactive) with SK-OV-3; 19.3 µM (inactive) in the experiment with MDA-MB-231; 60 µM (inactive) in the experiment on SF-539; 13.9 µM (inactive) with DU-145.

Regarding `Oc1cc(-c2ccccc2)cn2c1nc1ccccc12`, the GI50 in the experiment with MOLT-4 is 3.44 µM (inactive); in the experiment with RXF 393 it was > 22 µM (inactive); in the experiment with NCI-H460, 0.76 µM (active); in the experiment on ACHN, 6.41 µM (inactive); in the experiment on M14, 0.9 µM (active); in the experiment on MDA-N, 0.253 µM (active). For the same compound, the GI50 in the experiment on MCF7 is 1.22 µM (inactive); in the experiment with SNB-19, 3.45 µM (inactive); in the experiment with HCC 2998, 4.68 µM (inactive); in the experiment with NCI-H522 it was 0.243 µM (active); in the experiment with TK-10 it was > 100 µM (inactive); in the experiment on T47D, 1.5 µM (inactive). Further, the GI50 is 2.51 µM (inactive) in the experiment with U-251; 1.22 µM (inactive) in the experiment on OVCAR-3; 3.21 µM (inactive) in the experiment on SR; 1.09 µM (active) with SK-OV-3; 0.382 µM (active) in the experiment on MDA-MB-231; 2.59 µM (inactive) with SF-539. Moreover, the values for the GI50 with A549 and in the experiment with DU-145 were 1.73 µM (inactive) and 4.55 µM (inactive), respectively.
